# Test results reported in patent US20050095226A1, “Down-regulation of DNA repair to enhance sensitivity to p53-mediated suppression” (priority 1996, published 2005).
# “Also recorded” adds a separate entry of the source.
# Columns and labels:
# [1] = tested on: 9L rat glioblastoma cells; experiment: Cell viability assay (MTS) in 9L rat glioblastoma cells; type: cell-based
# Description: (§1) T98G glioblastoma cells were obtained from ATCC and cultured at 37° C. 10% CO2 in Dulbecco's Modified Eagles Medium supplemented with 10% newborn calf serum. 9L rat glioblastoma cells were obtained from Carol Cruse (University of Colorado) and cultured at 37° C. in 10% CO2 in Dulbecco's Modified Eagles Medium supplemented with 10% fetal Calf serum. The T98G-LHCmjun clone (termed T98G mutant jun or T98G-mjun), as well as control empty vector modified clone (termed T98GLHCX) were obtained from Dr. Dan Mercola (Sidney Kimmel Cancer Center) and were cultured in the same way as were T98G cells except that 100 μg/ml hygromycin was added to the culture medium. The 98G-mjun is stably modified to express a dominant negative mutant of c-jun (the mutant was obtained by site-directed mutagenesis by M. Karin and colleagues and is described by Smeal et al. (1991). Mutant jun has ser→ala substitutions at positions 63 and 73, two sites of DNA damage-induced phosphorylation, and can therefore not be phosphorylated at these sites. 9LpCEPp53 (or 9LpCEP4, control) were cultured in the same way at 9L cells except that 50 μg/ml hygromycin was added to the medium.
# Rat 9L glioblastoma cells express p53 mutated at codon 277 (J. Neuroonal. 19:259-268, 1994.) 9LpCEPp53 (or 9LpCEP4) were obtained by transducing 5×10^5 9L cells with 15 μG of pCEPp53 (or pCEP4) using Lipofectamine (GIBCO/BRL, Gaithersberg, Md.) following the manufacturer's instructions. Clones were selected in 50 μg/ml hygromycin and characterized for wild-type p53 expression by immunoprecipitation (immunoprecipitation procedure described in: Gjerset et al., Molec. Carcinog. 5:190-198, 1992) using the 1801 anti-p53 antibody specific for human p53 (p-Ab-2, Oncogene Science, Uniondale, N.Y.), and by the PG13 functional assay described above. pCEPp53 was derived by inserting the human wild-type p53 cDNA into the multicloning site of pCEP4.
# (§2) Cells were infected when they were at 80% confluence with either 100 pfu per cell overnight in DMEM containing 2% heat-inactivated FBS (for T98G and clones derived from T98G) or at 50 pfu per cell for 2 hours (9L cells). The efficiency of infection was determined by staining a sample of the β-gal virus-infected cells at 48 hrs post-infection as described (Dannenerg and Saga, 1981).
# (§3) Viability assays were performed in 96 wells plates 6-7 days after plating. Cells were plated at a starting cell number per well of 1000. Triplicate or quadruplicate wells were set up for each assay point. […] For cisplatin treatment, triplicate or quadruplicate wells were exposed for 1 hour to various concentrations of cisplatin (Platinol™), and then incubated in the absence of cisplatin for 7 days, during which time control (untreated) wells were in exponential phase growth. Viable cell number was based on the bioconversion of the tetrazolium compound, MTS, into formazan (Promega, Celltiter96™Aqeous), as determined by absorbance at […] using an ELISA reader. For 3-aminobenzamide (ABZ) treatment, triplicate or quadruplicate wells were treated with either 5 mM ABZ or 10 mM ABX. Fresh ABZ was added every two days and viability was scored as described above at 6 days. Assays involving the synthetic retinoid SR11220 were performed in the presence of charcoal-treated fetal bovine serum. Medium was replaced every two days with medium containing fresh retinoid.
# [2] = tested on: T98G parental cells; experiment: PCR stop assay for DNA damage (2.7 Kb HPRT fragment) in T98G parental cells; type: cell-based, human
# Description: (§4) This assay has been described (Oshita and Saijo, 1994; Jannerwein and Eastman, 1991). The assay is based on the principle that every DNA lesion, including adducts produced by cisplatin, can potentially block the progression of the Taq polymerase and decrease the yield of a given PCR™ product. […] Furthermore, when whole cells are incubated with varying levels of cisplatin, the degree of inhibition of amplification of a specific PCR™ product from DNA purified from these cells, correlates closely with the amount of DNA damage (level of DNA platination) as measured by atomic adsorption (Jannerwein and Eastman, 1991). The following primers (used by Oshita and Saijo, 1994) which amplify a 2.7 Kb fragment of the human hypoxanthine phosphoribosyl transferase (HPRTase) gene were used:
# (§5) As an internal control for the efficiency of the PCR™ reaction, a nested 5′ primer which amplifies a 150 bp fragment of the same gene was used:
# At the cisplatin levels used to treat the cells, damage to the smaller fragment is undetectable. […] In some experiments, 3-aminobenzamide (10 mM), an inhibitor of ADP ribosylation and DNA repair (see Din et al., 1992) was added during the 6 hour recovery period. […] DNA was washed with 70% EtOH to remove salt, followed by 100% EtOH dried briefly, and resuspended at 1 mg/ml in sterile H2O. Quantitative PCR™ was performed in 50 μl aliquots using 0.5 μg DNA, 50 pmol of forward primer for 2.7 Kb fragment, 50 pmol reverse primer, and 5 pmol of forward primer for the 150 base fragment, 50 mM KCL, 10 nmM Tris pH 8.3, 1.5 mM MgCl2, […], 0.5 μl Tac polymerasse (Perkin Elmer), and 1 pmol radioactively end-labeled reverse primer (labeled with y-^32P-dATP). Amplification conditions were as follows: 1 cycle: 94° C., 1′30; 25 cycles: 94° (1 min)-57° (1 min)-70° (2′30″); 1 cycle:94° (1 min)-57° (1 min)-70° (7′). […] The gel was vacuum-dried for two hours onto filter paper and the PCR™-amplified 2.7 Kb and 150 bp bands were quantitated using an Ambis4000 Radioanalytic Imaging system (Ambis, Inc., San Diego, Calif.).
# [3] = tested on: T98G-mutant jun cells; experiment: PCR stop assay for DNA damage (2.7 Kb HPRT fragment) in T98G-mutant jun cells; type: cell-based, human; conditions: varying concentrations
# Description: as §4, §5
# At the cisplatin levels used to treat the cells, damage to the smaller fragment is undetectable. […] In some experiments, 3-aminobenzamide (10 mM), an inhibitor of ADP ribosylation and DNA repair (see Din et al., 1992) was added during the 6 hour recovery period. […] The gel was vacuum-dried for two hours onto filter paper and the PCR™-amplified 2.7 Kb and 150 bp bands were quantitated using an Ambis4000 Radioanalytic Imaging system (Ambis, Inc., San Diego, Calif.).
# [4] = tested on: T47D breast cancer cells; experiment: Cell viability assay (MTS) in T47D breast cancer cells; type: cell-based; conditions: for cell viability: one hour cisplatin, various concentrations, 7 days post-infection; for viability: 7 days
# Description: Cells were infected when they were at 80% confluence with either 100 pfu per cell overnight in DMEM containing 2% heat-inactivated FBS (for T98G and clones derived from T98G) or at 50 pfu per cell for 2 hours (9L cells).
# as §3
# [5] = tested on: T98G glioblastoma cells; experiment: Cell viability assay (MTS) in T98G glioblastoma cells; type: cell-based; conditions: for cell viability: 7 days post-treatment
# Description: as §1, §2, §3
SMILES,"viability ([1]; 9L cells stably expressing human wild-type p53 (pCEPp53), 5 mM 3-aminobenzamide for 6 days)","viability ([1]; 9L cells stably expressing human wild-type p53 (pCEPp53), 10 mM 3-aminobenzamide for 6 days)","growth inhibition ([1]; 9L cells stably expressing only control vector pCEP4, both 5 mM and 10 mM 3-aminobenzamide, 6 days)","DNA damage (percentage of control PCR signal) ([2]; 10 mM 3-aminobenzamide, six hours post treatment with varying concentrations of cisplatin)","viability ([1]; 9L cells infected with p53 adenovirus, compared to βgal adenovirus, 50 μM cisplatin one day later, measured seven days after cisplatin)","cell viability ([1]; 9L cells stably modified with wild-type p53 vector pCEPp53, compared to control vector pCEP4, one hour cisplatin, various concentrations, 7 days post-treatment)",repair of DNA damage ([3]; six hours after 1.5 hours cisplatin),DNA damage (percentage of control PCR signal) ([3]; zero hour after 1.5 hours cisplatin),"cell viability ([4]; T47D cells infected with wild-type p53 adenovirus, two days post-infection)","viability ([4]; T47D cells infected with βgal adenovirus control, 10^−8 M SR11220, 10 μM cisplatin or combination)",cell viability ([4]; control T47D cells infected with βgal-adenovirus),"viability ([4]; p53 adenovirus infected T47D cells, 10 μM cisplatin, 1 hour exposure)","cell growth / viability ([5]; T98G cells infected with wild-type p53 adenovirus, one hour cisplatin, various concentrations, 7 days post-infection)","growth rate ([5]; T98G cells infected with βgal adenovirus, increasing levels of cisplatin, 7 days post-infection)","cell viability ([5]; T98G cells stably modified with wild-type p53 vector pLp53RNL, one hour cisplatin, increasing doses)","cell viability ([5]; control T98G cells stably modified with vector only, pLNRL, one hour cisplatin)","DNA damage (percentage of control PCR signal) ([2]; six hours after 1.5 hour cisplatin treatment, no 3-aminobenzamide)",DNA damage (percentage of control PCR signal) ([2]; zero hours after 1.5 hour treatment with varying concentrations of cisplatin)
NC(=O)c1cccc(N)c1 [3-aminobenzamide],low viability,even lower viability,resistant to growth inhibition,significant DNA damage,–,–,–,–,–,–,–,–,–,–,–,–,–,–
N.N.[Cl][Pt][Cl] [cisplatin],–,–,–,–,significant decrease in viability,significantly reduced the viability,not able to be repaired,high levels of DNA damage,decreased with increasing doses of cisplatin,not reduced significantly,significantly more refractory,an even greater effect on the reduction in viability,growth suppression in a dose dependent manner,slightly reduce growth rate,reduced in a dose dependent manner,more resistant,partially reduced; also recorded: no significant DNA damage remained,considerable DNA damage
